In US7678913B2, “Ureas as factor Xa inhibitors” (Portola Pharmaceuticals, Inc., priority 2004, dated 2010):
pIC50: −log10 of the molar value.

The compounds below were run against T1, human plasma protein factor Xa (Homo sapiens, UniProt P00742) (assay: Factor Xa IC50 determination (cleavage of chromogenic substrate S-2765)). Conditions: fXa 1 nM, S-2765 100 μM, Tris buffered saline pH 7.4, room temperature.
T1 construct: measure proteolytic activity of the enzyme (factor Xa); purchased Haematologic Technologies (Essex Junction, Vt.); host or cells: human plasma
Type: biochemical
Description: This example illustrates methods for evaluating the compounds of the invention, along with results obtained for such assays. The in vitro and in vivo Factor Xa isoform activities of the inventive compounds can be determined by various procedures known in the art, such as a test for their ability to inhibit the activity of the Factor Xa isoform. […] The IC50 value is the concentration (in nM) of the compound required to provide 50% inhibition of Factor Xa isoform.
An in vitro assay for detecting and measuring inhibition activity against Factor Xa is as follows:
• The substrate S-2765 (Z-D-Arg-Gly-Arg-pNA.HCl) was obtained from Diapharma (West Chester, Ohio). Enzyme: • The human plasma protein factor Xa was purchased from Haematologic Technologies (Essex Junction, Vt.). Methods
All assays, which are performed in 96-well microtiter plates, measure proteolytic activity of the enzyme (factor Xa) by following cleavage of paranitroanilide substrate. The assay buffer used for proteolytic assays was Tris buffered saline (20 mM Tris, 150 mM NaCl, 5 mM CaCl2, 0.1% Bovine serum albumin (BSA), 5% Dimethly Sulfoxide (DMSO) pH 7.4). In a 96-well microtiter plate, inhibitor was serially diluted to give a range of concentrations from 0.01 nM to 10 μM (final). Duplicate sets of wells were assayed and control wells without inhibitor were included. Enzyme was added to each well,(fXa concentration=1nM), the plate was shaken for 5 seconds and then incubated for 5 minutes at room temperature. S2765 was added (100 μM final) and the plate was shaken for 5 seconds (final liquid volume in each well was 200 μl). The degree of substrate hydrolysis was measured at 405 nm on a Thermomax plate reader (Molecular Devices, Sunnyvale, Calif.) for 2 minutes. The initial velocities (mOD/min), for each range of inhibitor concentrations, were fitted to a four parameter equation using Softmax data analysis software. The parameter C, derived from the resulting curve-fit, corresponded to the concentration for half maximal inhibition (IC50).

T1 sequence (P00742 235-488 limits assumed): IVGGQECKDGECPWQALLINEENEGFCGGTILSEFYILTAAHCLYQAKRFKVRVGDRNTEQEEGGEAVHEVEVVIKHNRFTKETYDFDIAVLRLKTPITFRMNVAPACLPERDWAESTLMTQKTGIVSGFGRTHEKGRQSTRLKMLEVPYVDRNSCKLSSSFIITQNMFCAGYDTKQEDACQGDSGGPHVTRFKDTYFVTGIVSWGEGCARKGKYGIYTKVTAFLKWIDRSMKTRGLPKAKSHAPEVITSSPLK
T1 sequence (P00742 41-179 partner limits assumed): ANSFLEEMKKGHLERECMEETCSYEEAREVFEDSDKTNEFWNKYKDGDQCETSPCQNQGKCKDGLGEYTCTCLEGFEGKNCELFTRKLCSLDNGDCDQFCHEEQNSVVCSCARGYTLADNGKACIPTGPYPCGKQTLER

| Structure (SMILES) | pIC50 |
| --- | --- |
| CN(C)C(=N)c1ccc(NC(=O)C(NC(=O)Nc2ccc(Cl)cc2)c2ccccc2F)cc1 (centres unmarked) [Example 43, N-[4-(dimethylaminoimino)phenyl]-2-(2-fluorophenyl)-2-(4-chlorophenylaminocarbonylamino)-acetamide] | ≥ 7.00 |
| O=C(Nc1ccc(Cl)cc1)NC(C(=O)N1CCC(N2CCCCC2=O)CC1)c1ccccc1F (centres unmarked) [Example 149, 4-(2-piperidinon-1-yl)piperidin-1-yl-2-(2-fluorophenyl)-2-(4-chlorophenylaminocarbonylamino)-acetamide] | ≥ 7.00 |
| CN1CCN=C1c1ccc(NC(=O)C(CC(=O)N2CCCCCC2)NC(=O)Nc2ccc(Cl)cc2)cc1 (centres unmarked) [Example 68, N-[4-(1-methyl-4,5-dihydro-1H-imidazol-2-yl)phenyl]-2-(homopiperidin-1-ylcarbonylmethyl)-2-(4-chlorophenylaminocarbonylamino)-acetamide] | ≤ 6.30 |
| CN1CCN=C1c1ccc(NC(=O)C2(NC(=O)Nc3ccc(Cl)cc3)CC2)cc1 [Example 15, N-[4-(1-methyl-4,5-dihydro-1H-imidazol-2-yl)phenyl]-1-(4-chlorophenylaminocarbonylamino)-1-cyclopropanecarboxamide] | 6.30 to 7.00 |
| O=C(Nc1ccc(Br)cc1)NC(C(=O)Nc1ccc(-c2cccc[n+]2[O-])cc1)c1ccccc1F (centres unmarked) [Example 52, N-[4-(N-oxo-pyridin-2-yl)phenyl]-2-(2-fluorophenyl)-2-(4-bromophenylaminocarbonylamino)-acetamide] | ≥ 7.00 |
| CN1CCN=C1c1ccc(NC(=O)C(NC(=O)Nc2ccc(Cl)cc2)c2ccc3c(c2)OCO3)cc1 (centres unmarked) [Example 76, N-[4-(1-methyl-4,5-dihydro-1H-imidazol-2-yl)phenyl]-2-(benzo-1,3-dioxl-5-yl)-2-(4-chlorophenylaminocarbonylamino)-acetamide] | ≥ 7.00 |
| N=C(c1ccc(NC(=O)C(NC(=O)Nc2ccc(Cl)cc2)c2ccccc2Br)cc1)N1CCCC1 (centres unmarked) [Example 81] | ≥ 7.00 |
| O=C(Nc1ccc(Cl)cc1)NC(C(=O)Nc1ccc(-c2cc[n+]([O-])cc2)cc1)c1ccccc1F (centres unmarked) [Example 50, N-[4-(N-oxo-pyridin-4-yl)phenyl]-2-(2-fluorophenyl)-2-(4-chlorophenylaminocarbonylamino)-acetamide] | 6.30 to 7.00 |
| N=C(c1ccc(NC(=O)C(NC(=O)Nc2ccc(Br)cc2)c2ccccc2F)cc1)N1CCCC1 (centres unmarked) [Example 44] | ≥ 7.00 |
| C#CCC(NC(=O)Nc1ccc(Cl)cc1)C(=O)Nc1ccc(C2=NCCN2C)cc1 (centres unmarked) [Example 129, N-[4-(1-methyl-4,5-dihydro-1H-imidazol-2-yl)phenyl]-2-propargyl-2-(4-chlorophenylaminocarbonylamino)-acetamide] | ≥ 7.00 |
| CN(C)C(=O)CC(NC(=O)Nc1ccc(Cl)cc1)C(=O)Nc1ccc(C2=NCCN2C)cc1 (centres unmarked) [Example 63, N-[4-(1-methyl-4,5-dihydro-1H-imidazol-2-yl)phenyl]-2-dimethylaminocarbonylmethyl-2-(4-chlorophenylaminocarbonylamino)-acetamide] | ≤ 6.30 |
| CN1CCC(N2CCN(C(=O)C(NC(=O)Nc3ccc(Cl)cc3)c3ccccc3)CC2)CC1 (centres unmarked) [Example 128] | ≥ 7.00 |
| CN1CCC(N2CCN(C(=O)C(NC(=O)Nc3ccc(Cl)cc3)c3ccccc3Cl)CC2)CC1 (centres unmarked) [Example 104, N-[4-(1-methylpiperidin-4-yl)piperazin-1-yl]-2-(2-chlorophenyl)-2-(4-chlorophenylaminocarbonylamino)-acetamide] | ≥ 7.00 |
| COc1ccccc1C(NC(=O)Nc1ccc(Cl)cc1)C(=O)Nc1ccc(N2CCCN(C)CC2)cc1 (centres unmarked) [Example 111, N-[4-(4-methyl-homopiperazinyl)phenyl]-2-(2-methoxyphenyl)-2-(4-chlorophenylaminocarbonylamino)-acetamide] | ≥ 7.00 |
| CN1CCN=C1c1ccc(NC(=O)[C@@H](NC(=O)Nc2ccc(Cl)cc2)c2ccccc2)cc1 [Example 31, (2S) N-[4-(1-methyl-4,5-dihydro-1H-imidazol-2-yl)phenyl]-2-phenyl-2-(4-chlorophenylaminocarbonylamino)-acetamide] | ≥ 7.00 |
| CN1CCN=C1c1ccc(NC(=O)C(Cc2cn(C)c3ccccc23)NC(=O)Nc2ccc(Cl)cc2)cc1 (centres unmarked) [Example 8, N-[4-(1-methyl-4,5-dihydro-1H-imidazol-2-yl)phenyl]-2-(1-methyl-indol-3-ylmethyl)-2-(4-chlorophenylaminocarbonylamino)-acetamide] | ≥ 7.00 |

| Structure (SMILES) | pIC50 |
| --- | --- |
| CSc1ccccc1C(NC(=O)Nc1ccc(Cl)cc1)C(=O)Nc1ccc(-c2cccc[n+]2[O-])cc1 (centres unmarked) [Example 126, N-[4-(N-oxo-pyridin-2-yl)phenyl]-2-(2-methylthiophenyl)-2-(4-chlorophenylaminocarbonylamino)-acetamide] | ≥ 7.00 |
| CN1CCN=C1c1ccc(NC(=O)C(NC(=O)Nc2ccc(Cl)cc2)c2ccccc2OC(F)(F)F)cc1 (centres unmarked) [Example 120, N-[4-(1-methyl-4,5-dihydro-1H-imidazol-2-yl)phenyl]-2-(2-trifluoromethoxyphenyl)-2-(4-chlorophenylaminocarbonylamino)-acetamide] | ≥ 7.00 |
| O=C(Nc1ccc(Cl)cc1)N[C@H](C(=O)Nc1ccc(-n2ccccc2=O)cc1)c1ccccc1 [Example 137, (2S) N-[4-(2-pyridon-1-yl)phenyl]-2-phenyl-2-(4-chlorophenylaminocarbonylamino)-acetamide] | ≥ 7.00 |
| Cc1ccccc1C(NC(=O)Nc1ccc(Cl)cc1)C(=O)Nc1ccc(N2CCCN(C)CC2)cc1 (centres unmarked) [Example 92, N-[4-(4-methyl-homopiperazinyl)phenyl]-2-(2-methylphenyl)-2-(4-chlorophenylaminocarbonylamino)-acetamide] | ≥ 7.00 |
| O=C(Nc1ccc(Cl)cc1)N[C@@H](C(=O)Nc1ccc(-n2ccccc2=O)cc1F)c1ccccc1 [Example 140, (2R) N-[4-(2-pyridon-1-yl)-2-fluorophenyl]-2-phenyl-2-(4-chlorophenylaminocarbonylamino)-acetamide] | ≥ 7.00 |
| N=C(c1ccc(NC(=O)C(NC(=O)Nc2ccc(Cl)cc2)c2ccccc2F)cc1)N1CCCCC1 (centres unmarked) [Example 42] | ≥ 7.00 |
| N=C(c1ccc(NC(=O)C(NC(=O)Nc2ccc(Cl)cc2)c2ccccc2)c(F)c1)N1CCC1 (centres unmarked) [Example 39] | ≥ 7.00 |
| CN1CCN=C1c1ccc(NC(=O)[C@H](CC(=O)O)NC(=O)Nc2ccc(Cl)cc2)cc1 [Example 60, (2S) N-[4-(1-methyl-4,5-dihydro-1H-imidazol-2-yl)phenyl]-2-carboxymethyl-2-(4-chlorophenylaminocarbonylamino)-acetamide] | ≤ 6.30 |
| CN1CCN=C1c1ccc(NC(=O)C(NC(=O)Nc2ccc(Cl)cc2)c2ccccc2I)cc1 (centres unmarked) [Example 114, N-[4-(1-methyl-4,5-dihydro-1H-imidazol-2-yl)phenyl]-2-(2-iodophenyl)-2-(4-chlorophenylaminocarbonylamino)-acetamide] | ≥ 7.00 |
| C=CCC(NC(=O)Nc1ccc(Cl)cc1)C(=O)Nc1ccc(-c2cccc[n+]2[O-])cc1 (centres unmarked) [Example 133, N-[4-(N-oxo-pyridin-2-yl)phenyl]-2-allyl-2-(4-chlorophenylaminocarbonylamino)-acetamide] | ≥ 7.00 |
| CN1CCN=C1c1ccc(NC(=O)C(NC(=O)Nc2ccc(F)cc2)c2cccs2)cc1 (centres unmarked) [Example 17, N-[4-(1-methyl-4,5-dihydro-1H-imidazol-2-yl)phenyl]-2-(2-thienyl)-2-(4-fluorophenylaminocarbonylamino)-acetamide] | 6.30 to 7.00 |
| CN1CCN=C1c1ccc(NC(=O)C(NC(=O)Nc2ccc(Cl)cc2)c2ccccc2SC(F)(F)F)cc1 (centres unmarked) [Example 122, N-[4-(1-methyl-4,5-dihydro-1H-imidazol-2-yl)phenyl]-2-(2-trifluoromethylthiophenyl)-2-(4-chlorophenylaminocarbonylamino)-acetamide] | ≥ 7.00 |
| CN(C)C(=N)c1ccc(NC(=O)C(NC(=O)Nc2ccc(Cl)cc2)c2ccccc2)c(F)c1 (centres unmarked) [Example 33, N-[4-(dimethylaminoimino)-2-fluorophenyl]-2-phenyl-2-(4-chlorophenylaminocarbonylamino)-acetamide] | ≥ 7.00 |
| N=C(c1ccc(NC(=O)C(NC(=O)Nc2ccc(Br)cc2)c2ccccc2F)cc1)N1CCCCC1 (centres unmarked) [Example 45, N-[4-(piperidin-1-ylimino)phenyl]-2-(2-fluorophenyl)-2-(4-bromophenylaminocarbonylamino)-acetamide] | ≥ 7.00 |
| O=C(Nc1ccc(Cl)cc1)NC(C(=O)N1CCC(N2CCOCC2=O)CC1)c1ccccc1F (centres unmarked) [Example 144, 4-(3-morpholinon-4-yl)piperidin-1-yl-2-(2-fluorophenyl)-2-(4-chlorophenylaminocarbonylamino)-acetamide] | ≥ 7.00 |
| CN(C)C(=N)c1ccc(NC(=O)C(NC(=O)Nc2ccc(Cl)cc2)c2cccs2)cc1 (centres unmarked) [Example 19, N-[4-(dimethylaminoimino)phenyl]-2-(2-thienyl)-2-(4-chlorophenylamino-carbonylamino)-acetamide] | ≥ 7.00 |
